Laboratory results: patent US9730906B2, “α-derivatives of cis-monounsaturated fatty acids for use as medicines” (UNIVERSITAT DE LES ILLES BALEARS, priority 2008, dated 2017)

Key:
[1] = system: human brain cancer (SF767), human lung cancer cells (A549), human pancreas cancer cells (BXPC3); experiment: Na-OHOD alone and combined with anti-tumour pharmaceuticals in immune-deprived mice with human tumours; assay type: in vivo; details: Na-OHOD 600 mg/kg
Description: FIG. 8A. Effect of Na-OHOD (sodium salt of OHOD) and combinations with various pharmaceuticals: temozolomide (TMZ), erlotinib, gemcitabine and cisplatin (cis-Pt) on various types of human cancers in models. Effect of treatments with vehicle (Control), temozolomide (TMZ, 80 mg/kg), Na-OHOD (OHOD, 600 mg/kg) and TMZ plus Na-OHOD (simultaneously at the same doses) for 60 days in immune-deprived mice infected with human brain cancer (SF767).
FIG. 8B. Effect of Na-OHOD (sodium salt of OHOD) and combinations with various pharmaceuticals: temozolomide (TMZ), erlotinib, gemcitabine and cisplatin (cis-Pt) on various types of human cancers in models. Idem, with Na-OHOD (OHOD, 600 mg/kg), erlotinib (Erlotinib, 40 mg/kg), cisplatin (cis-Pt, 100 mg/kg), plus erlotinib (OHO Er) or Na-OHOD plus cisplatin (OHO Pt) in nude mice infected with human lung cancer cells (A549).
FIG. 8C. Effect of Na-OHOD (sodium salt of OHOD) and combinations with various pharmaceuticals: temozolomide (TMZ), erlotinib, gemcitabine and cisplatin (cis-Pt) on various types of human cancers in models. Idem with Na-OHOD (OHOD, 600 mg/kg), Gemcitabine (Gemcitab, 40 mg/kg) or Na-OHOD plus Gemcitabine (OHO Gem) using the same doses in nude mice infected with human pancreas cancer cells (BXPC3). […]

[2] = system: lung cancer cells (A549); experiment: Culture plate invasion model, lung cancer cells (A549); assay type: cell-based, human; details: 50 μM and 100 μM, different times, vs untreated cells, p<0.05
Description: FIG. 5A. Invasive capacity of lung cancer cells (A549) in culture, in the absence (control, C) or presence of OHOD (2-hydroxy-9-cis-octadecenoic acid) at 50 μM (M50) and 100 μM (M100) and at different times.
FIG. 5B. Invasive capacity of lung cancer cells (A549) in culture, in the absence (control, C) or presence of OHOD (2-hydroxy-9-cis-octadecenoic acid) at 50 μM (M50) and 100 μM (M100) and at different times.
Furthermore, α-derivatives of cis-monounsaturated fatty acids are capable of inducing cadherin expression. Cadherin is a cellular adhesion protein. Cells expressing cadherin are often not displaced from their tissue location as they adhere to the surrounding cells. Tumour cells that lose the capacity to synthesise this protein can migrate from the tissue in which they were generated to other body tissues where they can develop a new tumour focus by the process known as metastasis. In treatments with α-derivatives of cis-monounsaturated the fatty acids, a significant increase in cadherin levels was observed (FIG. 4). The invasive capacity of cancer cells was also investigated in a culture plate invasion model. […] Then, an area of the culture dish is scraped and the number of cells invading this region at various times, in the presence and absence of the anti-metastasis compound is counted.

| SMILES | anti-tumour effectiveness of Na-OHOD alone vs temozolomide, erlotinib, gemcitabine, cisplatin [1] | invasive capacity (number of invasive cells) [2] |
| --- | --- | --- |
| CCCCCCCC/C=C\CCCCCCC(O)C(=O)[O-].[Na+] (centres unmarked) [Na-OHOD] | more effective |  |
| CCCCCCCC/C=C\CCCCCCC(O)C(=O)O (stereo not drawn) [OHOD, α-Hydroxy-cis-Δ9-octadecenoic] |  | lower invasive capacity |
